Here are results for 17 compounds from patent US6620831B2, “Indazoles substituted with 1,1-dioxoisothiazolidine useful as inhibitors of cell proliferation” (LG Life Sciences Ltd., priority 2000, dated 2003).

Bounds are passed on as bounds.

The IC50 is the concentration at which inhibition is half-maximal. Low values mean higher potency, high ones lower potency.

The target of this test is T1, CDK2/cyclin A (Homo sapiens, UniProt P24941).
T1 construct: made in house; host or cells: insect ('worm') cells co-infected with baculoviruses
The test is described as follows: CDK2 inhibitory activity (CDK2/cyclin A, [gamma-32P] ATP, histon H1 or Rb protein substrate). Format: biochemical. The conditions noted are these: first IC50 column (c1) of Table 1. The source says: CDK2 enzyme was obtained from either extract from the worm cell co-infected with baculovirus which expresses a CDK2 gene and baculovirus which expresses a cyclin A gene, or active enzyme purified therefrom. CDK4 was also obtained from either extract from the worm cell co-infected with baculovirus which expresses a CDK4 gene and baculovirus which expresses a cyclin D1 gene. As substrates, histon H1 or Rb protein was used for CDK2, and Rb protein for CDK4. The radioactive activities in substrates were determined by reacting compounds diluted with each concentration with a proper quantity of CDK2/cyclin A or CDK4/cyclin D1 and substrate protein, and [gamma-32P labeled] ATP, and then separating the substrates.
Inhibitory abilities of inhibitors according to the present invention for each enzyme activity were expressed as IC50 values, which were determined in accordance with the method as described above.
`COCCOCCOCCOc1ccc(CC(=O)Nc2n[nH]c3ccc(N4CCCS4(=O)=O)cc23)cc1` [Compound 66, N-[5-(1,1-dioxo-1λ^6-isothiazolidin-2-yl)-1H-indazol-3-yl]-2-(4-2-[2-(2-methoxyethoxy)ethoxy]ethoxyphenyl)acetamide]: the IC50 is less than 100 nM.
For `CCOc1ccc(CC(=O)Nc2n[nH]c3ccc(N4CCCS4(=O)=O)cc23)cc1[N+](=O)[O-]` [Compound 67, N-[5-(1,1-dioxo-1λ^6-isothiazolidin-2-yl)-1H-indazol-3-yl]-2-(4-ethoxy-3-nitrophenyl)acetamide], the IC50 is less than 50 nM.
With `Cc1ccccc1CC(=O)Nc1n[nH]c2ccc(N3CCCS3(=O)=O)cc12` [Compound 68, N-[5-(1,1-dioxo-1λ^6-isothiazolidin-2-yl)-1H-indazol-3-yl]-2-(2-methylphenyl)acetamide], the IC50 is less than 100 nM.
As to `CCNc1cccc(CC(=O)Nc2n[nH]c3ccc(N4CCCS4(=O)=O)cc23)c1` [Compound 69, N-[5-(1,1-dioxo-1λ^6-isothiazolidin-2-yl)-1H-indazol-3-yl]-2-[3-(ethylamino)phenyl]acetamide], the IC50 was less than 500 nM.
For `CCN(CC)c1cccc(CC(=O)Nc2n[nH]c3ccc(N4CCCS4(=O)=O)cc23)c1` [Compound 70, 2-[3-(diethylamino)phenyl]-N-[5-(1,1-dioxo-1λ^6-isothiazolidin-2-yl)-1H-indazol-3-yl]acetamide] the value was less than 500 nM; for `COc1cc(CC(=O)Nc2n[nH]c3ccc(N4CCCS4(=O)=O)cc23)cc(OC)c1` [Compound 71, 2-(3,5-dimethoxyphenyl)-N-[5-(1,1-dioxo-1λ^6-isothiazolidin-2-yl)-1H-indazol-3-yl]acetamide], less than 50 nM.
In turn, `CCNc1ccc(CC(=O)Nc2n[nH]c3ccc(N4CCCS4(=O)=O)cc23)cc1` [Compound 72, N-[5-(1,1-dioxo-1λ^6-isothiazolidin-2-yl)-1H-indazol-3-yl]-2-[4-(ethylamino)phenyl]acetamide] yielded an IC50 of less than 50 nM.
`CCN(CC)c1ccc(CC(=O)Nc2n[nH]c3ccc(N4CCCS4(=O)=O)cc23)cc1` [Compound 73, 2-[4-(diethylamino)phenyl]-N-[5-(1,1-dioxo-1λ^6-isothiazolidin-2-yl)-1H-indazol-3-yl]acetamide]: the IC50 is less than 50 nM.
Take `CCOc1ccc(CC(=O)Nc2n[nH]c3ccc(N4CCCS4(=O)=O)cc23)cc1Cl` [Compound 74, 2-(3-chloro-4-ethoxyphenyl)-N-[5-(1,1-dioxo-1λ^6-isothiazolidin-2-yl)-1H-indazol-3-yl]acetamide]: the IC50 was less than 100 nM.
Consider `NCCOc1ccc(CC(=O)Nc2n[nH]c3ccc(N4CCCS4(=O)=O)cc23)cc1` [Compound 75, 2-[4-(2-aminoethoxy)phenyl]-N-[5-(1,1-dioxo-1λ^6-isothiazolidin-2-yl)-1H-indazol-3-yl]acetamide], for which the IC50 was less than 100 nM.
As to `CC(=O)Nc1nc(CC(=O)Nc2n[nH]c3ccc(N4CCCS4(=O)=O)cc23)cs1` [Compound 76], the IC50 is less than 10000 nM.
With `O=C(Cc1csc(NCc2ccc(OCc3ccccc3)cc2)n1)Nc1n[nH]c2ccc(N3CCCS3(=O)=O)cc12` [Compound 77, 2-(2-[4-(benzyloxy)benzyl]amino-1,3-thiazol-4-yl)-N-[5-(1,1-dioxo-1λ^6-isothiazolidin-2-yl)-1H-indazol-3-yl]acetamide] the figure was less than 10000 nM; with `CCOc1cccc(CC(=O)Nc2n[nH]c3ccc(N4CCCS4(=O)=O)cc23)c1` [Compound 78, N-[5-(1,1-dioxo-1λ^6-isothiazolidin-2-yl)-1H-indazol-3-yl]-2-(3-ethoxyphenyl)acetamide], less than 50 nM; with `CCOc1ccc(CC(=O)Nc2n[nH]c3ccc(N4CCCS4(=O)=O)cc23)cc1S(=O)(=O)N1CCOCC1` [Compound 79, N-[5-(1,1-dioxo-1λ^6-isothiazolidin-2-yl)-1H-indazol-3-yl]-2-[4-ethoxy-3-(4-morpholinylsulfonyl)phenyl]acetamide], less than 1000 nM.
Compound `CCOc1ccc(CC(=O)Nc2n[nH]c3ccc(N4CCCS4(=O)=O)cc23)cc1S(N)(=O)=O` [Compound 80, 2-[3-(aminosulfonyl)-4-ethoxyphenyl]-N-[5-(1,1-dioxo-1λ^6-isothiazolidin-2-yl)-1H-indazol-3-yl]acetamide] came in with an IC50 of less than 1000 nM.
With `CCOc1ccc(CC(=O)Nc2n[nH]c3ccc(N4CCCS4(=O)=O)cc23)cc1S(=O)(=O)N1CCN(C)CC1` [Compound 81, N-[5-(1,1-dioxo-1λ^6-isothiazolidin-2-yl)-1H-indazol-3-yl]-2-4-ethoxy-3-[(4-methyl-1-piperazinyl)sulfonyl]phenylacetamide] the figure was less than 1000 nM.
The compound `NCCOc1ccc(CC(=O)Nc2n[nH]c3ccc(N4CCCS4(=O)=O)cc23)cc1` [Compound 82, 2-[4-(2-aminoethoxy)phenyl]-N-[5-(1,1-dioxo-1λ^6-isothiazolidin-2-yl)-1H-indazol-3-yl]acetamide] had an IC50 of less than 1000 nM.
